From patent US20220041559A1, “BENZO-AND PYRIDO-PYRAZOLES AS PROTEIN KINASE INHIBITORS” (ROTTAPHARM BIOTECH S.R.L., priority 2019, published 2022)

What was measured:
FYN = target: T1, FYN (Homo sapiens, UniProt P06241); experiment: Z'-LYTE in vitro kinase assay, FYN kinase inhibition; format: biochemical
T1 construct: purchased CarnaBioscience
Procedure, shortened: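 Active FYN incubated with Z′-LYTE Tyr 2 peptide, near-Km ATP and compound (10^−10 to 10^−5 M final, 1% DMSO) in 50 mM Hepes pH 7.5, 10 mM MgCl2, 1 mM EGTA, 0.01% Brij-35, 60 min at 25° C. Protease development then coumarin/fluorescein FRET readout gives % phosphorylation; IC50 by non-linear fitting.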

YES kinase = target: T2, YES kinase (Homo sapiens, UniProt P07947); experiment: ADP-Glo in vitro kinase assay, YES kinase inhibition; format: biochemical; settings: ATP 50 μM, 30 minutes at room temperature
T2 construct: purchased Thermo Fisher
T2 sequence (P07947 whole entry): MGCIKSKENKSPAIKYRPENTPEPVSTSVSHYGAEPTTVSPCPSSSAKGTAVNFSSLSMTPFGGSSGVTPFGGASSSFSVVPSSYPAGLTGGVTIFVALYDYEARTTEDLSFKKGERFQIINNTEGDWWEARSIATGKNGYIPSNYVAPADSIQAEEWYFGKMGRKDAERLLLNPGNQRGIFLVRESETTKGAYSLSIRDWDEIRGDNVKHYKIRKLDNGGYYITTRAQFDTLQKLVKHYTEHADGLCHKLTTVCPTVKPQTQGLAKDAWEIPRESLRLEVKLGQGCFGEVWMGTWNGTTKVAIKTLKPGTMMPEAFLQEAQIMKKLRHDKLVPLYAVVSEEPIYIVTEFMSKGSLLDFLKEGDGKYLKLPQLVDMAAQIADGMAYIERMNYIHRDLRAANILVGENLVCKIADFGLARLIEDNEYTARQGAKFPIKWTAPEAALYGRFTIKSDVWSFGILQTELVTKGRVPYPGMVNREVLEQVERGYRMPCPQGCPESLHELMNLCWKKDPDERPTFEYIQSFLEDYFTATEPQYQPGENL
Description: The ADP-Glo™ Kinase Assay (Promega), monitoring ADP produced in the kinase reaction, was performed in two steps. In the first one, after the kinase reaction, the ADP-Glo™ Reagent is added to terminate the kinase reaction and deplete the remaining ATP. In the second step, the Kinase Detection Reagent is added to simultaneously convert ADP to ATP (ATPn or newly synthesized ATP) and introduce luciferase and luciferin, allowing the ATPn to be measured (luciferase/luciferin reaction). The amount of light generated correlates with the amount of ATPn (indirectly with the ADP produced in kinase reaction).
Kinase reaction was performed in 10 μl in a white 384-well plate, inhibitor solutions in DMSO/Kinase buffer (40 mM Tris-Cl, 20 mM MgCl2, 0.1 mg/ml BSA, 50 μM DTT, pH 7.5) and YES kinase in Kinase buffer (Thermo Fisher, 0.5 ng/μl final concentration in assay) were pre-incubate 15 minutes at room temperature. At the kinase concentration selected, a signal-to negative control ratio >10 was calculated, according to supplier indication. […]
The range of inhibitor concentrations was from 10^−10 M up to 10^−5 M (final concentration in assay) and each experimental point was performed in duplicate. […] The luminescence was measured with a plate-reading luminometer (Envision 2104 Multilabel reader, PerkinElmer). […]

T1 sequence (P06241 whole entry): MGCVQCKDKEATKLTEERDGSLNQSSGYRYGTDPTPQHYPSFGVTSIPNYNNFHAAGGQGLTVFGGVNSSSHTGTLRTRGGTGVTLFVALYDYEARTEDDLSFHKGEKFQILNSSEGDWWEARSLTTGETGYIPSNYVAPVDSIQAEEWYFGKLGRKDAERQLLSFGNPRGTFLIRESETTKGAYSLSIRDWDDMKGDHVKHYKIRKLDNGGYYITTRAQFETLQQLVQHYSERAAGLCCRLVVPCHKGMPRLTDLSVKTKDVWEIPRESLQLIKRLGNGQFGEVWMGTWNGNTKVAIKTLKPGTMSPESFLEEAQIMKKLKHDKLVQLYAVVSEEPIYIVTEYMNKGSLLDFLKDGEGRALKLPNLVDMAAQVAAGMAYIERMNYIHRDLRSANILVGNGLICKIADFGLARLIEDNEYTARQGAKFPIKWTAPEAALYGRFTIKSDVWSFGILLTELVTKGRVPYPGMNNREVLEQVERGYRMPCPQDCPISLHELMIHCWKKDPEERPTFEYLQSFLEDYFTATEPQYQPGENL

CN1CCC(c2ccc(C(=O)Nc3n[nH]c4nc(Nc5ccccc5F)ccc34)cc2)CC1 [Compound 5, N-(6-((2-fluorophenyl)amino)-1H-pyrazolo[3,4-b]pyridin-3-yl)-4-(1-methylpiperidin-4-yl)benzamide]
FYN kinase inhibition, result in words (FYN; Table 17): more active | IC50 (FYN; near-Km ATP, 60 minutes at 25° C.): 69 nM | IC50 (YES kinase): 3.6 nM
